In the supplement of paper PMC10307832:

Columns and labels:
Assay in all cases: relative viability (nuclei count vs DMSO), 5 days (fraction); higher = more cells survive
[1] = test system: NCI-H2009
Outline: (§1)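 The day after seeding in 1536-well plates, lung cancer cell lines were treated by pin tool with a single drug, or with a fixed anchor-drug dose together with five library-drug doses (not always all listed) in √10 steps. After 5 days, a combined fix-and-stain solution (final 0.05% Triton X-100, 1% formaldehyde, 1 ug/ml Hoechst) was added. Nuclei counted on 4× images gave relative viability as treated counts over vehicle counts, reported as the median of duplicate plates.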

[2] = test system: SW 1573
Outline: as §1

[3] = test system: NCI-H2023
Outline: as §1

[4] = test system: NCI-H2405
Outline: as §1

[5] = test system: NCI-H2085
Outline: as §1

[6] = test system: HCC-827
Outline: as §1

[7] = test system: NCI-H1355
Outline: as §1

[8] = test system: ABC-1
Outline: as §1

[9] = test system: HCC-44
Outline: as §1

[10] = test system: EPLC-272H
Outline: as §1

[11] = test system: PC-14
Outline: as §1

[12] = test system: NCI-H2228
Outline: as §1

[13] = test system: COR-L23
Outline: as §1

[14] = test system: NCI-H1734
Outline: as §1

[15] = test system: NCI-H2347
Outline: as §1

[16] = test system: HCC-366
Outline: as §1

[17] = test system: NCI-H1944
Outline: as §1

[18] = test system: HCC-15
Outline: as §1

[19] = test system: NCI-H1793
Outline: as §1

[20] = test system: NCI-H3122
Outline: as §1

CCNC(=O)c1noc(-c2cc(C(C)C)c(O)cc2O)c1-c1ccc(CN2CCOCC2)cc1 [Luminespib] + CS(=O)(=O)CCNCc1ccc(-c2ccc3ncnc(Nc4ccc(OCc5cccc(F)c5)c(Cl)c4)c3c2)o1 [Lapatinib] (partner 2 µM)
relative viability ([1]; first compound 0.002 µM): 1.22
relative viability ([1]; first compound 0.006325 µM): 0.814
relative viability ([1]; first compound 0.02 µM): 0.63
relative viability ([1]; first compound 0.06325 µM): 0.0682
relative viability ([1]; first compound 0.2 µM): 0.0655
relative viability ([2]; first compound 0.002 µM): 1.2
relative viability ([2]; first compound 0.006325 µM): 1.14
relative viability ([2]; first compound 0.02 µM): 0.711
relative viability ([2]; first compound 0.06325 µM): 0.439
relative viability ([2]; first compound 0.2 µM): 0.127
relative viability ([3]; first compound 0.002 µM): 0.866
relative viability ([3]; first compound 0.006325 µM): 0.787
relative viability ([3]; first compound 0.02 µM): 0.124
relative viability ([3]; first compound 0.06325 µM): 0.0702
relative viability ([3]; first compound 0.2 µM): 0.0724
relative viability ([4]; first compound 0.002 µM): 1.17
relative viability ([4]; first compound 0.006325 µM): 0.876
relative viability ([4]; first compound 0.02 µM): 0.869
relative viability ([4]; first compound 0.06325 µM): 0.144
relative viability ([4]; first compound 0.2 µM): 0.125
relative viability ([5]; first compound 0.002 µM): 0.854
relative viability ([5]; first compound 0.006325 µM): 0.793
relative viability ([5]; first compound 0.02 µM): 0.482
relative viability ([5]; first compound 0.06325 µM): 0.373
relative viability ([5]; first compound 0.2 µM): 0.284
relative viability ([6]; first compound 0.002 µM): 0.184
relative viability ([6]; first compound 0.006325 µM): 0.184
relative viability ([6]; first compound 0.02 µM): 0.172
relative viability ([6]; first compound 0.06325 µM): 0.235
relative viability ([6]; first compound 0.2 µM): 0.185
relative viability ([7]; first compound 0.002 µM): 0.891
relative viability ([7]; first compound 0.006325 µM): 1.02
relative viability ([7]; first compound 0.02 µM): 0.461
relative viability ([7]; first compound 0.06325 µM): 0.664
relative viability ([7]; first compound 0.2 µM): 0.153
relative viability ([8]; first compound 0.002 µM): 1.33
relative viability ([8]; first compound 0.006325 µM): 0.964
relative viability ([8]; first compound 0.02 µM): 0.945
relative viability ([8]; first compound 0.06325 µM): 1.14
relative viability ([8]; first compound 0.2 µM): 0.517
relative viability ([9]; first compound 0.002 µM): 0.975
relative viability ([9]; first compound 0.006325 µM): 1.08
relative viability ([9]; first compound 0.02 µM): 1.18
relative viability ([9]; first compound 0.06325 µM): 0.161
relative viability ([9]; first compound 0.2 µM): 0.159
relative viability ([10]; first compound 0.006325 µM): 0.861
relative viability ([10]; first compound 0.02 µM): 0.563
relative viability ([10]; first compound 0.06325 µM): 0.725
relative viability ([10]; first compound 0.2 µM): 0.153
relative viability ([11]; first compound 0.002 µM): 0.383
relative viability ([11]; first compound 0.006325 µM): 0.267
relative viability ([11]; first compound 0.02 µM): 0.247
relative viability ([11]; first compound 0.06325 µM): 0.138
relative viability ([11]; first compound 0.2 µM): 0.116
relative viability ([12]; first compound 0.002 µM): 1.2
relative viability ([12]; first compound 0.006325 µM): 0.808
relative viability ([12]; first compound 0.02 µM): 0.191
relative viability ([12]; first compound 0.06325 µM): 0.126
relative viability ([12]; first compound 0.2 µM): 0.117
relative viability ([13]; first compound 0.002 µM): 1.22
relative viability ([13]; first compound 0.006325 µM): 0.945
relative viability ([13]; first compound 0.02 µM): 0.924
relative viability ([13]; first compound 0.06325 µM): 0.0749
relative viability ([13]; first compound 0.2 µM): 0.0671
relative viability ([14]; first compound 0.002 µM): 1.08
relative viability ([14]; first compound 0.006325 µM): 1
relative viability ([14]; first compound 0.02 µM): 0.675
relative viability ([14]; first compound 0.06325 µM): 0.123
relative viability ([14]; first compound 0.2 µM): 0.132
relative viability ([15]; first compound 0.002 µM): 0.941
relative viability ([15]; first compound 0.02 µM): 0.876
relative viability ([15]; first compound 0.06325 µM): 0.758
relative viability ([15]; first compound 0.2 µM): 0.88
relative viability ([16]; first compound 0.002 µM): 1.07
relative viability ([16]; first compound 0.006325 µM): 1.05
relative viability ([16]; first compound 0.02 µM): 0.13
relative viability ([16]; first compound 0.06325 µM): 0.0159
relative viability ([16]; first compound 0.2 µM): 0.0157
relative viability ([17]; first compound 0.002 µM): 0.869
relative viability ([17]; first compound 0.006325 µM): 0.724
relative viability ([17]; first compound 0.02 µM): 0.445
relative viability ([17]; first compound 0.06325 µM): 0.41
relative viability ([17]; first compound 0.2 µM): 0.407
relative viability ([18]; first compound 0.002 µM): 0.812
relative viability ([18]; first compound 0.006325 µM): 0.783
relative viability ([18]; first compound 0.02 µM): 0.883
relative viability ([18]; first compound 0.06325 µM): 0.308
relative viability ([18]; first compound 0.2 µM): 0.136
relative viability ([19]; first compound 0.002 µM): 0.697
relative viability ([19]; first compound 0.006325 µM): 0.832
relative viability ([19]; first compound 0.02 µM): 0.223
relative viability ([19]; first compound 0.06325 µM): 0.167
relative viability ([19]; first compound 0.2 µM): 0.177
relative viability ([20]; first compound 0.002 µM): 1.09
relative viability ([20]; first compound 0.006325 µM): 0.951
relative viability ([20]; first compound 0.02 µM): 1.02
relative viability ([20]; first compound 0.06325 µM): 0.24
relative viability ([20]; first compound 0.2 µM): 0.168
